{"source": "patent US20250295607A1", "about": "“OPHTHALMIC COMPOSITIONS FOR TREATMENT OF OCULAR SURFACE DAMAGE AND SYMPTOMS OF DRYNESS” (Novaliq GmbH, priority 2018, published 2025)", "key": {"[1]": {"tested_on": "subjects with Dry Eye Disease", "assay": "Phase 2 multi-center, randomized, double-masked, saline-controlled clinical study (NCT03333057), signs and symptoms overall", "format": "in vivo, human", "description": "A Phase 2, Multi-Center, Randomized, Double-Masked, Saline-Controlled Study to Evaluate the Effect of 1-Perfluorohexyloctane (NOV03) at two different dosing regimens on signs and symptoms of Dry Eye Disease (DED) was conducted. The study was performed at 11 investigational cites in the United States. The study was reviewed and approved by the respective ethics committees and registered at www.clinicaltrials.gov (NCT03333057).\nThe primary objective for this study is to evaluate the efficacy, safety, and tolerability of an ophthalmic composition essentially consisting of 1-perfluorohexyloctane (NOV03) at two different dosing regimens (QID, BID) compared to saline solution in subjects with Dry Eye Disease. The secondary objectives are to compare the effect of an ophthalmic composition essentially consisting of 1-perfluorohexyloctane (NOV03) and saline solution at two different dosing regimens on signs and symptoms of Dry Eye Disease and to evaluate the pharmacokinetics after 57 days dosing.\nSubjects must: • a. Be at least 18 years of age. • b. Provide written informed consent. • c. Have a subject reported history of Dry Eye Disease in both eyes for at least 6 months prior to Visit 0. • d. […] Have Meibomian Gland Dysfunction (MGD) defined as MGD score≥3 (secretion of 5 central glands on lower eyelid will be evaluated, each will be scored from 0-3; 0=normal, 1=thick/yellow, whitish, particulate 2=paste; 3=none/occluded; total score will range from 0-15) at Visit 0 and Visit 1. • h. […]\nScreening (Visit 0); Within 14 days before Visit 1 Subjects will be required to sign an Informed Consent before completing any study related procedure. At the screening visit, vital signs will be assessed and the subject will give blood for safety laboratory tests. […]\nBaseline Visit Day 1 (Visit 1): On Day 1 (Visit 1), eligible subjects will be evaluated for baseline signs and symptoms of dry eye disease. […]\nVisits 2-4; Subjects will return to the clinic on Day 15±1 (Visit 2), 29±2 (Visit 3), and 57±2 (Visit 4) to be evaluated for signs and symptoms of dry eye disease. […]"}, "[2]": {"tested_on": "cornea of subjects with Dry Eye Disease", "assay": "Corneal fluorescein staining, NEI grading scale (ocular surface damage)", "format": "in vivo, human", "source_text": "A Wratten #12 yellow filter will be used to enhance the ability to grade fluorescein staining. The staining will be graded with the NEI (National Eye Institute) Grading\nScale. Only the staining of the cornea will be graded. Digital images of fluorescein staining may be taken for digital analysis.\nBased on the NEI/Industry Workshop Scale, the grade of the ocular surface damage for each eye is scored for each of the five regions of the cornea based on measuring fluorescein uptake.\nGrade 0 will be specified when no fluorescein staining is present. Grades 1, 2 and 3 define an increasing density and degree of observed fluorescein staining, The maximum total score for each eye is 15."}, "[3]": {"tested_on": "subjects with Dry Eye Disease", "assay": "Visual Analog Scale (VAS) Eye Dryness Score questionnaire", "format": "in vivo, human", "conditions": "QID", "description": "An Eye Dryness Score was determined based on a 10-item questionnaire provided to subjects, where subjects were asked to rate their ocular symptoms (both eyes simultaneously) due to ocular dryness by placing a vertical mark on a horizontal line scale to indicate the level of discomfort (0% corresponds to “no dryness” and 100% corresponds to “maximal dryness”). Subjects are asked about the severity of dry eye symptoms, namely the symptoms of dryness representing the first 8 questions of the VAS questionnaire corresponding to: dryness (corresponding to the first question in the VAS questionnaire, and also referred to in the text and in the graphs as “severity of dryness”; with the terms “dryness” and “severity of dryness” being used interchangeably herein as a dry eye symptom designation, sticky feeling, burning/stinging, foreign body sensation, itching, blurred vision, sensitivity to light, and pain.\nSubjects are also asked about their awareness of their dry eye symptoms and frequency of their dry eye symptoms, namely questions 9-10 of the VAS questionnaire. The rating for these questions is indicated by the subject by placing a vertical mark on a horizontal line scale to indicate the percentage of time of awareness or frequency, with 0% corresponding to ‘never’ and 100% corresponding to ‘all of the time’."}, "[4]": {"tested_on": "subjects with Dry Eye Disease", "assay": "Ocular Surface Disease Index (OSDI) questionnaire", "format": "in vivo, human", "source_text": "The Ocular Surface Disease Index (OSDI©)) is perhaps the most frequently used survey instrument for the assessment of ocular surface disease severity in dry eye research. The OSDIC was created by the Outcomes Research Group at Allergan Inc in order to quickly assess the symptoms of ocular irritation in dry eye disease and how they affect functioning related to vision. This 12-item questionnaire assesses dry eye symptoms and the effects it has on vision-related function in the past week of the patient's life. The questionnaire has 3 subscales: ocular symptoms, vision-related function, and environmental triggers. Patients rate their responses on a 0 to 4 scale with 0 corresponding to “none of the time” and 4 corresponding to “all of the time.” A final score is calculated which ranges from 0 to 100.\nThe questions assess the following: dry eye symptoms experienced by the patient within past week: sensitivity to light, gritty sensation, pain or sore eyes, blurriness, and poor vision; vision-related function, in terms of problems in the past week with regards to: reading, driving at night, working on a computer or bank machine, watching television; and in terms of environmental factors or triggers i.e. discomfort experienced in the past week during: windy conditions, places with low humidity, and areas with air condition.\nSubtotals are obtained for all the questions, as well as the total number of questions answered. The OSDI index is assessed based on a scale of 0 to 100, with higher scores representing a greater disability. The OSDI index is calculated from the sum of the scores multiplied by a factor of 25, over the total number of questions answered. Higher scores represent a greater degree/severity and impact of dry eye disease."}, "Density": {"assay": "Density", "format": "physicochemical"}, "[5]": {"conditions": "QID, after 2 weeks of treatment"}, "[6]": {"conditions": "QID, significant also at 4 weeks, 8 weeks"}}}
{"molecule": "CCCCCCCCC(F)(F)C(F)(F)C(F)(F)C(F)(F)C(F)(F)C(F)(F)F", "note": "[NOV03, 1-perfluorohexyloctane]", "values": [{"measurement": "signs and symptoms of dry eye disease", "setting": "[1]; 4 times daily, single drop of 10-12 μl, highly symptomatic DED population with significant MGD involvement", "value": "relevant and statistically significant improvements"}, {"measurement": "benefit in patient population by baseline characteristics", "setting": "[1]; QID, OSDI between 38 and 72, TBUT between 2.1 and 3.9 seconds or MGD score between 4.0 and 11.2, and/or total corneal fluorescein staining between 4.8 and 9.2", "value": "beneficial"}, {"measurement": "benefit in patients meeting one or more baseline criteria", "setting": "[1]; QID, TBUT equal or lower than 3, OSDI higher than 57, total corneal fluorescein staining between 5 and 9, MGD score equal or higher than 7, Schirmer I Test greater or equal than 10 mm", "value": "especially benefitted"}, {"measurement": "reduction of ocular surface damage, superior corneal region", "setting": "[2]; QID vs saline", "value": "did not show such clear improvement"}, {"measurement": "reduction of ocular surface damage, central corneal region", "setting": "[2]; QID vs saline, 2, 4, 8 weeks", "value": "clear improvements"}, {"measurement": "reduction of ocular surface damage, inferior corneal region", "setting": "[2]; QID vs saline, 2, 4, 8 weeks", "value": "clear improvements"}, {"measurement": "reduction of ocular surface damage, nasal corneal region", "setting": "[2]; QID vs saline, 2, 4, 8 weeks", "value": "clear improvements"}, {"measurement": "reduction of ocular surface damage, temporal corneal region", "setting": "[2]; QID vs saline, 2, 4, 8 weeks", "value": "clear improvements"}, {"measurement": "patients with improvement of ≥1 grade in central corneal staining", "setting": "[2]; [5]", "value": 39, "unit": "%"}, {"measurement": "patients with improvement of ≥3 grades in total corneal staining", "setting": "[2]; [5]", "value": 32, "unit": "%"}, {"measurement": "patients with improvement of ≥1 grade in central corneal staining", "setting": "[2]; QID, after 8 weeks", "value": 50, "unit": "%"}, {"measurement": "patients with improvement of ≥3 grades in total corneal staining", "setting": "[2]; QID, after 8 weeks", "value": 42, "unit": "%"}, {"measurement": "total corneal fluorescein staining (primary efficacy endpoint), reduction of ocular surface damage of the total corneal region", "setting": "[2]; QID, at 8 weeks, vs saline", "value": "met its prespecified primary efficacy endpoint"}, {"measurement": "start of treatment effect relating to the signs", "setting": "[2]; [6]", "value": 2, "unit": "weeks"}, {"measurement": "VAS pain", "setting": "[3]; at the 4 week timepoint, higher variability", "value": "did not improve"}, {"measurement": "VAS awareness of dryness", "setting": "[3]; over the placebo group", "value": "highly statistical significant improvement"}, {"measurement": "VAS blurred vision", "setting": "[3]; over the placebo group", "value": "highly statistical significant improvement"}, {"measurement": "VAS burning/stinging", "setting": "[3]; over the placebo group", "value": "highly statistical significant improvement"}, {"measurement": "VAS foreign body sensation", "setting": "[3]; over the placebo group", "value": "highly statistical significant improvement"}, {"measurement": "VAS frequency of dryness", "setting": "[3]; over the placebo group", "value": "highly statistical significant improvement"}, {"measurement": "VAS itching", "setting": "[3]; over the placebo group", "value": "highly statistical significant improvement"}, {"measurement": "VAS sensitivity to light", "setting": "[3]; over the placebo group", "value": "highly statistical significant improvement"}, {"measurement": "VAS severity of dryness", "setting": "[3]; over the placebo group", "value": "highly statistical significant improvement"}, {"measurement": "VAS sticky feeling", "setting": "[3]; over the placebo group", "value": "highly statistical significant improvement"}, {"measurement": "VAS severity of dryness in patients with Schirmer I Test of greater or equal than 10 mm", "setting": "[3]; subpopulation with normal tear production, DED associated with MGD, 8 weeks", "value": "significant change from baseline"}, {"measurement": "start of treatment effect relating to the VAS symptoms", "setting": "[3]; significant also at 4 weeks, 8 weeks", "value": 2, "unit": "weeks"}, {"measurement": "OSDI blurred vision", "setting": "[4]; QID vs saline", "value": "clear improvements"}, {"measurement": "OSDI eyes feeling gritty", "setting": "[4]; QID vs saline", "value": "clear improvements"}, {"measurement": "OSDI painful or sore eyes", "setting": "[4]; QID vs saline", "value": "clear improvements"}, {"measurement": "OSDI poor vision", "setting": "[4]; QID vs saline", "value": "clear improvements"}, {"measurement": "OSDI problems with driving at night", "setting": "[4]; QID vs saline", "value": "clear improvements"}, {"measurement": "OSDI problems with watching TV", "setting": "[4]; QID vs saline", "value": "clear improvements"}, {"measurement": "OSDI reading problems", "setting": "[4]; QID vs saline", "value": "clear improvements"}, {"measurement": "OSDI sensitivity to light", "setting": "[4]; QID vs saline", "value": "clear improvements"}, {"measurement": "OSDI uncomfortable in areas that are air conditions", "setting": "[4]; QID vs saline", "value": "clear improvements"}, {"measurement": "OSDI uncomfortable in areas with low humidity", "setting": "[4]; QID vs saline", "value": "clear improvements"}, {"measurement": "OSDI uncomfortable under windy conditions", "setting": "[4]; QID vs saline", "value": "clear improvements"}, {"measurement": "OSDI problems with working with a computer or bank machine (ATM)", "setting": "[4]; QID, at the 4 and 8-week timepoint, higher data variability", "value": "did not improve"}, {"measurement": "total OSDI score", "setting": "[4]; QID, over the placebo group", "value": "highly statistical significant improvement"}, {"measurement": "start of treatment effect relating to the OSDI symptoms", "setting": "[4]; [6]", "value": 2, "unit": "weeks"}, {"measurement": "density", "setting": "Density", "value": 1.35, "unit": "g/mL"}, {"measurement": "density (d)", "setting": "Density", "value": 1.35, "unit": "g/mL"}]}
